Assay results reported in patent US4869895A, “Radiolabeled benzazepine” (Hoffmann-La Roche Inc., priority 1988, dated 1989).

Experiments:
[1] = molecular target: benzodiazepine (BZ) receptor; experiment: in vitro displacement: prevention of the binding of the compound of formula I; set-up: species or system rat (male, Sprague-Dawley); conditions: rat cerebral cortical tissue; given in words only
[2] = tested on: BZ receptors in the brain; experiment: in vivo binding of the compound of formula I in mouse cerebral cortex; set-up: species or system mouse (male, ICR); conditions: mice, tail vein injection
Protocol: In vivo binding of the compound of formula I was determined according to the following procedures. Mice (male, 30 g ICR, Hilltop Farms) were injected via the tail vein with the compound of formula I. Ten or 30 minutes later, the mice were killed, the cerebral cortices of the brains were dissected solubilized, and the radioactivity was determined using standard methods. In order to determine nonspecific binding, some mice were pretreated with 5 mg/kg clonazepam (30 min ip). Specific/nonspecific binding ratios in cerebral cortex were about 2 at 10 minutes. The tissues in these tests were assayed directly without first homogenizing and washing them to reduce nonspecific binding. Therefore, the ratios were true in vivo ratios. Radioactivity was low and specific binding was negligible at 30 minutes.

[3] = tested on: benzodiazepine (BZ) receptor; experiment: in vitro benzodiazepine receptor binding of the compound of formula I (saturation, rat cerebral cortical tissue); set-up: species or system rat (male, Sprague-Dawley); conditions: for Bmax / Kd: 60 min incubation, pH 7.7; for Ratio (Specific/nonspecific): concentration of the compound of formula I at Kd, nonspecific with 10^-6 M clonazepam

CCOC(=O)c1ncn2c1CN(C)C(=O)c1cc(F)ccc1-2 [Ethyl-8-fluoro-5,6-dehydro-5-methyl-6-oxo-4H-imidazol-[1,5-a]-1,4[benzodiazepine-3-carboxylate]]
Ki, prevention of binding of the compound of formula I [1]: in the nM range

O=C1CN=C(c2ccccc2Cl)c2cc([N+](=O)[O-])ccc2N1 [clonazepam]
Ki, prevention of binding of the compound of formula I [1]: in the nM range

[3H]c1cc(Cl)cc2c1C1=C(CN=C2c2ccccc2Cl)C(=O)NC1 [compound of formula I, 8-Chloro-6-(2-chlorophenyl)-1,4-dihydropyrrolo-[3,4-d][2]-10-t-benzazepin-3(2H)-one]
Specific/nonspecific binding ratio in cerebral cortex ([2]; 10 minutes, nonspecific: 5 mg/kg clonazepam (30 min ip), tissue not homogenized or washed): about 2
Radioactivity in cerebral cortex ([2]; 30 minutes): low
specific binding in cerebral cortex ([2]; 30 minutes): negligible
Bmax ([3]; 0 °C): 1.36 × 10^-10 mol/mg wet weight
Kd ([3]; 0 °C): 0.18 ± 0.05 nM
Ratio (Specific/nonspecific) ([3]; 0 °C): 12
specific to nonspecific ratios (FIG. 1) ([3]; 37 °C, 0.01 to 10 nM, over a relatively large range of concentrations): high
Bmax ([3]; 37 °C): 1.22 × 10^-10 mol/mg wet weight
Kd ([3]; 37 °C): 0.82 ± 0.03 nM
Ratio (Specific/nonspecific) ([3]; 37 °C): 4
affinity and selectivity for BZ receptors in the brain ([3]; summary statement): high affinity and is a selective ligand for BZ receptors in the brain

Cc1ncc2n1-c1ccc(Cl)cc1C(c1ccccc1F)=NC2 [midazolam]
Ki, prevention of binding of the compound of formula I [1]: in the nM range
